From patent US20250018019A1, “TREATMENT OF INTERFERON DRIVEN INFLAMMATION” (The Provost, Fellows, Foundation Scholars and the other …, priority 2023, published 2025)
Structures can show the parent of a compound that is named as a salt.

System: BMDMs
Assay: Proteomic analysis of BMDMs
Format: cell-based, mouse
Conditions: BMDMs pre-treated vs DMSO, LPS 4 h
Experimental: BMDMs (from 5 independent mice) were plated onto 10-cm dishes and treated as indicated. At the experimental endpoint, cells were washed with PBS on ice and centrifuged at 1500 rpm for 5 mins at 4° C. and frozen at -80° C. Cell pellets were lysed, reduced and alkylated in 50 μl of 6M Gu-HCl, 200 mM Tris-HCl PH 8.5, 10 mM TCEP, 15 mM Chloroacetamide by probe sonication and heating to 95° C. for 5 min. Protein concentration was measured by a Bradford assay and initially digested with LysC (Wako) with an enzyme to substrate ratio of 1/200 for 4 h at 37° C. Subsequently, the samples were diluted tenfold with water and digested with porcine trypsin (Promega) at 37° C. overnight. Samples were acidified to 1% TFA, cleared by centrifugation (16,000 g at RT) and approximately 20 μg of the sample was desalted using a Stage-tip. Eluted peptides were lyophilized, resuspended in 0.1% TFA/water and the peptide concentration was measured by A280 on a nanodrop instrument (Thermo). The sample was diluted to 2 μg/5 μl for subsequent analysis. The tryptic peptides were analysed on a Fusion Lumos mass spectrometer connected to an Ultimate Ultra3000 chromatography system (both Thermo Scientific) incorporating an autosampler. 2 μg of de-salted peptides were loaded onto a 50 cm emitter packed with 1.9 μm ReproSil-Pur 200 C18-AQ (Dr Maisch, Germany) using a RSLC-nano uHPLC systems connected to a Fusion Lumos mass spectrometer (both Thermo, UK). Peptides were separated by a 140 min linear gradient from 5% to 30% acetonitrile, 0.5% acetic acid. […] Raw files were analysed and quantified by searching against the Uniprot Mus Musculus database using DIA-NN 1.8 (https://github.com/[…]). […] Data were expressed as mean±standard error of the mean (SEM) unless stated otherwise. […] The proteomics cut-offs for analysis were a log2FC of 0.5 and a false discovery rate (FDR)<0.05, determined using t statistics. […] Overrepresentation analysis (ORA) of significant changes were assessed using Enrichr^4 and the Bioconductor package clusterProfiler 4.0 in R (version 3.6.1). […]

Structure (SMILES)	GDF15 protein (proteomics)	SLC25A39 protein (proteomics)
COC(=O)/C=C/C(=O)OC [DMF, dimethyl fumarate]	one of the most significantly increased proteins	–
CCOC(=O)[C@@]12CCCC=C1N(Cc1ccc(-c3ccccc3)cc1)C(=O)[C@H]2CC(=O)NC [FHIN1, Fumarate hydratase-IN-1]	one of the most significantly increased proteins	increased
